Measurements: patent US20160257697A1, “THIOPHENE-SUBSTITUTED TETRACYCLIC COMPOUNDS AND METHODS OFUSE THEREOF FOR THE TREATMENT OF VIRAL DISEASES” (priority 2013, published 2016)
Like-named read-outs stand apart in the source and are kept apart here.

Experiments:
Experiment in all cases: microbe, parasite or virus in culture
Format in all cases: cell-based, Hepatitis C virus (HCV)
HCV replicon 1B = conditions: Replicon Assay B
HCV replicon 1AQ30D = conditions: Replicon Assay B
HCV replicon 1A = conditions: Replicon Assay A
How it was run: (§1)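 Read-out is replicon RNA per cell by real-time RT-PCR, normalised to cyclophilin mRNA amplified in the same well. Cells were exposed to compound for 3 days at 2000 cells/well in medium with 5% fetal bovine serum and 0.5% DMSO.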

HCV replicon 2B = conditions: Replicon Assay A
How it was run: as §1

HCV replicon 1AY93H = conditions: Replicon Assay A
How it was run: as §1

[1] = read-out: 1A Q30D IC50, replicon 1AQ30D
[2] = read-out: 1A Y93H IC50, replicon 1AY93H
[3] = Hepatitis C virus, HCV replicon 1B
[4] = read-out: 2B IC50, HCV replicon 2B
[5] = read-out: 1A Y93H IC50, HCV replicon 1A Y93H
[6] = Hepatitis C virus, read-out: 1A Q30D IC50 (nM), replicon 1AQ30D
[7] = Hepatitis C virus, read-out: 2B IC50 (nM), replicon 2B
[8] = Hepatitis C virus, read-out: 1A Y93H IC50 (nM), replicon 1AY93H
[9] = replicon 1AQ30D, read-out: 1A Q30D IC50
[10] = replicon 1AY93H, read-out: 1A Y93H IC50
[11] = read-out: 1A Q30D IC50, HCV replicon 1A Q30D

| Compound | IC50 (HCV replicon 1B; replicon 1B) [pM] | IC50 (HCV replicon 1A; replicon 1A) [pM] | IC50 (HCV replicon 2B; read-out: 2B IC50, replicon 2B) [nM] | IC50 (HCV replicon 1AY93H; [2]) [nM] | IC50 (HCV replicon 1B; Hepatitis C virus, replicon 1B) [pM] | IC50 (HCV replicon 1AQ30D; [6]) [nM] | IC50 (HCV replicon 1A; Hepatitis C virus, replicon 1A) [pM] | other results |
| --- | --- | --- | --- | --- | --- | --- | --- | --- |
| COC(=O)N[C@H](C(=O)N1CCC[C@H]1c1ncc(-c2ccc3c(c2)OC(c2cc4ccccc4s2)n2c-3cc3cc(-c4cnc([C@@H]5CCCN5C(=O)[C@@H](NC(=O)OC)C5CCOCC5)[nH]4)ccc32)[nH]1)C1CCOCC1 (single isomer, unassigned) [Compound 263] | 3.4 | 3.6 | 0.005 | 0.003 | – | – | – | IC50 (HCV replicon 1AQ30D; [1]): 0.012 nM |
| COC(=O)N[C@H](C(=O)N1CCC[C@H]1c1nc(-c2cc(F)c3c(c2)OC(c2ccc(C4CC4)s2)n2c-3cc3cc(-c4c[nH]c([C@@H]5C[C@H]6C[C@H]6N5C(=O)[C@@H](NC(=O)OC)C(C)C)n4)ccc32)c[nH]1)C(C)C (single isomer, unassigned) [Compound 721] | – | – | – | – | – | – | – | IC50 (HCV replicon 1B; [3]): 1.5 pM; IC50 (HCV replicon 1AQ30D; Hepatitis C virus, read-out: 1A Q30D IC50, HCV replicon 1A Q30D): 0.17 nM; IC50 (HCV replicon 1A; HCV replicon 1A): 1.5 pM; IC50 (HCV replicon 2B; [4]): 0.05 nM; IC50 (HCV replicon 1AY93H; [5]): 0.0045 nM |
| CCc1ccc(C2Oc3cc(-c4cnc([C@@H]5CCCN5C(=O)C(NC(=O)OC)C5C[C@@H](C)O[C@@H](C)C5)[nH]4)cc(F)c3-c3cc4cc(-c5cnc([C@@H]6CCCN6C(=O)[C@@H](NC(=O)OC)C(C)C)[nH]5)ccc4n32)s1 (single isomer, unassigned) [Compound 156] | – | 2 | 0.005 | 0.005 | 1.8 | 0.019 | – | – |
| COC(=O)N[C@H](C(=O)N1CCC[C@H]1c1ncc(-c2cc(F)c3c(c2)OC(c2ccc(CC(F)(F)F)s2)n2c-3cc3cc(-c4cnc([C@@H]5CCCN5C(=O)[C@@H](NC(=O)OC)C(C)C)[nH]4)ccc32)[nH]1)C(C)C (stereo partly shown) [Compound 125] | – | – | – | – | 1.3 | 0.29 | 2.3 | IC50 (HCV replicon 2B; [7]): 0.089 nM; IC50 (HCV replicon 1AY93H; [8]): 0.018 nM |
| COC(=O)N[C@H](C(=O)N1CCC[C@@H]1c1cnc(-c2cc(F)c3c(c2)OC(c2ccc(C4(O)CC4)s2)n2c-3cc3cc(-c4ncc([C@@H]5CCCN5C(=O)[C@@H](NC(=O)OC)C(C)C)[nH]4)ccc32)[nH]1)C(C)C (stereo partly shown) [Compound 61] | 1.1 | 1.1 | – | – | – | – | – | IC50 (HCV replicon 1AQ30D; [9]): 0.22 nM; IC50 (HCV replicon 2B; replicon 2B, read-out: 2B IC50): 0.012 nM; IC50 (HCV replicon 1AY93H; [10]): 0.014 nM |
| COC(=O)N[C@H](C(=O)N1CCC[C@H]1c1ncc(-c2cc(F)c3c(c2)OC(c2cc4c(s2)CCC4)n2c-3cc3cc(-c4cnc([C@@H]5C[C@H]6C[C@H]6N5C(=O)[C@@H](NC(=O)OC)C5C[C@@H](C)O[C@@H](C)C5)[nH]4)ccc32)[nH]1)C(C)C (single isomer, unassigned) [Compound 553] | – | – | – | – | – | – | – | IC50 (HCV replicon 1B; HCV replicon 1B): 48.2 pM; IC50 (HCV replicon 1AQ30D; [11]): 0.708 nM; IC50 (HCV replicon 1A; HCV replicon 1A): 44.1 pM; IC50 (HCV replicon 2B; [4]): 0.218 nM; IC50 (HCV replicon 1AY93H; [5]): 0.0396 nM |
| COC(=O)N[C@H](C(=O)N1CCC[C@@H]1c1ncc(-c2ccc3c(c2)cc2n3C(c3ccc(C4CC4)s3)Oc3cc(-c4cnc([C@@H]5CCCN5C(=O)[C@H](NC(=O)OC)C(C)(C)F)[nH]4)cc(F)c3-2)[nH]1)C1C[C@@H](C)O[C@@H](C)C1 (stereo partly shown) [Compound 380] | – | – | – | – | 2.4 | 0.022 | 3 | IC50 (HCV replicon 2B; [7]): 0.0056 nM; IC50 (HCV replicon 1AY93H; [8]): 0.0052 nM |
| COC(=O)NC(C(=O)N1CCC[C@H]1c1ncc(-c2ccc3c(c2)cc2n3C(c3ccc(C4CC4)s3)Oc3cc(-c4cnc([C@@H]5CCCN5C(=O)[C@@H](NC(=O)OC)C5CCOCC5)[nH]4)cc(F)c3-2)[nH]1)C(C)(C)F (single isomer, unassigned) [Compound 173] | 2.1 | 1.7 | 0.35 | 0.098 | – | – | – | IC50 (HCV replicon 1AQ30D; [1]): 0.28 nM |
| COC(=O)N[C@H](C(=O)N1[C@@H]2C[C@@H]2C[C@H]1c1ncc(-c2cc(F)c3c(c2)OC(c2ccc(C4CC4)s2)n2c-3cc3cc(-c4cnc([C@@H]5C[C@H]6C[C@H]6N5C(=O)[C@@H](NC(=O)OC)C(C)C)[nH]4)ccc32)[nH]1)C(C)C (single isomer, unassigned) [Compound 87] | – | – | 0.19 | 0.002 | 1.3 | 0.15 | 1.2 | – |
| COC(=O)NC(C(=O)N1CCC[C@H]1c1ncc(-c2ccc3c(c2)cc2n3C(c3ccc(C4CC4)s3)Oc3cc(-c4cnc([C@@H]5CCCN5C(=O)[C@@H](NC(=O)OC)C(C)C)[nH]4)cc(F)c3-2)[nH]1)C1CCO[C@H](C)C1 (single isomer, unassigned) [Compound 134] | 2.6 | 2.5 | 0.003 | 0.002 | – | – | – | IC50 (HCV replicon 1AQ30D; [1]): 0.015 nM |
| COC(=O)N[C@@H](Cc1ccccc1)C(=O)N1CCC[C@H]1c1ncc(-c2ccc3c(c2)OC(c2ccc(-c4ccc(NC(=O)CCCC[C@@H]5SC[C@@H]6NC(=O)N[C@@H]65)cc4)s2)n2c-3cc3cc(-c4cnc([C@@H]5CCCN5C(=O)[C@H](Cc5ccccc5)NC(=O)OC)[nH]4)ccc32)[nH]1 (single isomer, unassigned) [Compound 384] | – | 15.6 | 3.75 | 0.923 | 9.5 | 16.7 | – | – |
| COC(=O)N[C@H](C(=O)N1CCC[C@H]1c1ncc(-c2cc(C)c3c(c2)OC(c2ccc(C4CC4)s2)n2c-3cc3cc(-c4cnc([C@@H]5C[C@H]6C[C@H]6N5C(=O)[C@@H](NC(=O)OC)C5CCOCC5)[nH]4)ccc32)[nH]1)C(C)C (single isomer, unassigned) [Compound 762] | – | – | – | – | – | – | – | IC50 (HCV replicon 1B; [3]): 3 pM; IC50 (HCV replicon 1AQ30D; [11]): 0.025 nM; IC50 (HCV replicon 1A; Hepatitis C virus, HCV replicon 1A): 2 pM; IC50 (HCV replicon 2B; [4]): 0.0048 nM; IC50 (HCV replicon 1AY93H; [5]): 0.005 nM |
| COC(=O)N[C@H](C(=O)N1CCC[C@H]1c1ncc(-c2cc(F)c3c(c2)OC(c2ccc(-c4ccc(N=[N+]=[N-])cc4)s2)n2c-3cc3cc(-c4cnc([C@@H]5CCCN5C(=O)[C@@H](NC(=O)OC)C(C)C)[nH]4)ccc32)[nH]1)C(C)C (mixture of isomers) [Compound 264] | – | – | – | – | 4.3 | 0.7 | 3.7 | IC50 (HCV replicon 2B; [7]): 0.19 nM; IC50 (HCV replicon 1AY93H; [8]): 0.029 nM |
| COC(=O)NC(C(=O)N1[C@@H]2C[C@@H]2C[C@H]1c1ncc(-c2ccc3c(c2)cc2n3C(c3ccc(CC4CC4)s3)Oc3cc(-c4cnc([C@@H]5CCCN5C(=O)[C@@H](NC(=O)OC)C(C)C)[nH]4)cc(F)c3-2)[nH]1)C1CCOC(C)(C)C1 (single isomer, unassigned) [Compound 417] | – | – | – | – | – | – | – | IC50 (HCV replicon 1B; HCV replicon 1B): 6 pM; IC50 (HCV replicon 1AQ30D; [11]): 0.0738 nM; IC50 (HCV replicon 1A; HCV replicon 1A): 3.4 pM; IC50 (HCV replicon 2B; [4]): 0.0098 nM; IC50 (HCV replicon 1AY93H; [5]): 0.119 nM |
| COC(=O)N[C@H](C(=O)N1CCC[C@H]1c1ncc(-c2cc(F)c3c(c2)OC(c2ccc(CC4CC4)s2)n2c-3cc3cc(-c4cnc([C@@H]5CCCN5C(=O)[C@@H](NC(=O)OC)C(C)C)[nH]4)ccc32)[nH]1)C(C)C (single isomer, unassigned) [Compound 54] | 1.2 | 2 | – | – | – | – | – | IC50 (HCV replicon 1AQ30D; [9]): 0.2 nM; IC50 (HCV replicon 2B; replicon 2B, read-out: 2B IC50): 0.03 nM; IC50 (HCV replicon 1AY93H; [10]): 0.005 nM |
| COC(=O)NC(C(=O)N1CCC[C@H]1c1ncc(-c2cc(F)c3c(c2)OC(c2ccc(C4CC4)s2)n2c-3cc3cc(-c4cnc([C@@H]5CCCN5C(=O)[C@@H](NC(=O)OC)C5CCOCC5)[nH]4)ccc32)[nH]1)C(C)(C)F (stereo partly shown) [Compound 168] | 1.5 | – | 0.002 | 0.002 | – | 0.011 | 1.3 | – |
| COC(=O)N[C@H](C(=O)N1CCC[C@H]1c1ncc(-c2cc(F)c3c(c2)OC(c2ccc(C4(O)CC4)s2)n2c-3cc3cc(-c4cnc([C@@H]5CCCN5C(=O)[C@@H](NC(=O)OC)C(C)C)[nH]4)ccc32)[nH]1)C(C)C (single isomer, unassigned) [Compound 60] | – | – | – | – | 1.3 | 0.35 | 1.5 | IC50 (HCV replicon 2B; [7]): 0.023 nM; IC50 (HCV replicon 1AY93H; [8]): 0.014 nM |
